Assay results taken from patent US9434704B2, “Compositions and methods for the treatment of neurological degenerative disorders” (CELLIX BIO PRIVATE LIMITED, priority 2012, dated 2016).
Values joined by “and” are separate entries in the source; they are usually repeats but may differ in a detail not shown here. Identical values can stand only once.

Legend:
[1] = in vivo; details: female, Wistar, rat, ip, 8 mg/kg
[2] = rat, in vivo, 8 mg/kg

## CC(OC(=O)CCCC[C@]1(C)CCSS1)OC(=O)Nc1nc2ccc(OC(F)(F)F)cc2s1 (stereo partly shown) [Formula II (2-1)]
[1]
  Cmax: 10200 ng/g and 3380 ng/mL
[1]; t1/2 in brain
  half-life: 13.2 h
[1]; t1/2 in cervical SC
  half-life: 13.2 h
[1]; t1/2 in plasma
  half-life: 11 h
[1]; t1/2 in thoracic SC
  half-life: 11 h
[2]; female, Wistar
  time to reach spinal cord (SC): ≤ 15 min
[2]
  time of Cmax in SC: 1.5 h
[2]; ip
  absorption after I.P. administration: readily absorbed
  time of Cmax in brain: 0.7 h
  time of Cmax in plasma: 0.5 h
